Data: the NIST ThermoML archive (doi:10.1016/j.fluid.2007.07.016)
Numbers after ± are expanded uncertainties.

Assay: xn = mol fraction of the nth substance listed
Conditions: 101 kPa, Liquid; for viscosity: Capillary tube (Ostwald / Ubbelohde) method; for speed of sound: Linear variable-path acoustic interferometer

C1CCOC1 [tetrahydrofuran] + c1ccccc1
Conditions | speed of sound, 288.15 K [m/s] | speed of sound, 298.15 K [m/s] | speed of sound, 308.15 K [m/s] | speed of sound, 318.15 K [m/s] | viscosity, 288.15 K [mPa·s] | viscosity, 298.15 K [mPa·s] | viscosity, 308.15 K [mPa·s] | viscosity, 318.15 K [mPa·s]
x1 = 0.0754 | 1351.7 ± 1.6 | 1302.5 ± 1.6 | 1256 ± 1.5 | 1206.1 ± 1.5 | 0.6847 ± 0.0049 | 0.5973 ± 0.0043 | 0.536 ± 0.0039 | 0.4667 ± 0.0036
x1 = 0.1518 | 1350.7 ± 1.6 | 1301.4 ± 1.6 | 1254.7 ± 1.5 | 1205.1 ± 1.5 | 0.6762 ± 0.0048 | 0.5921 ± 0.0043 | 0.533 ± 0.0039 | 0.4665 ± 0.0036
x1 = 0.223 | 1349.8 ± 1.6 | 1300.6 ± 1.6 | 1253.6 ± 1.5 | 1204.3 ± 1.5 | 0.6673 ± 0.0047 | 0.5863 ± 0.0042 | 0.529 ± 0.0039 | 0.4659 ± 0.0036
x1 = 0.2962 | 1348.5 ± 1.6 | 1299.3 ± 1.6 | 1252.2 ± 1.5 | 1203.2 ± 1.5 | 0.6573 ± 0.0047 | 0.5793 ± 0.0042 | 0.5237 ± 0.0038 | 0.4637 ± 0.0036
x1 = 0.3556 | 1347.4 ± 1.6 | 1298.4 ± 1.6 | 1251.3 ± 1.6 | 1202.5 ± 1.5 | 0.6484 ± 0.0046 | 0.5728 ± 0.0042 | 0.5186 ± 0.0038 | 0.4609 ± 0.0035
x1 = 0.4128 | 1346.3 ± 1.6 | 1297.5 ± 1.6 | 1250.3 ± 1.6 | 1201.8 ± 1.5 | 0.6394 ± 0.0046 | 0.5659 ± 0.0041 | 0.5128 ± 0.0038 | 0.4574 ± 0.0035
x1 = 0.4812 | 1344.6 ± 1.6 | 1296 ± 1.6 | 1248.8 ± 1.6 | 1200.7 ± 1.5 | 0.6277 ± 0.0045 | 0.5568 ± 0.0041 | 0.505 ± 0.0037 | 0.4522 ± 0.0035
x1 = 0.5506 | 1342.7 ± 1.6 | 1294.3 ± 1.6 | 1247.1 ± 1.6 | 1199.4 ± 1.5 | 0.6151 ± 0.0044 | 0.5467 ± 0.004 | 0.4961 ± 0.0037 | 0.4457 ± 0.0035
x1 = 0.6219 | 1340.5 ± 1.6 | 1292.4 ± 1.6 | 1245.1 ± 1.6 | 1197.8 ± 1.5 | 0.6013 ± 0.0043 | 0.5353 ± 0.0039 | 0.4858 ± 0.0036 | 0.4379 ± 0.0034
x1 = 0.6884 | 1338 ± 1.6 | 1290.2 ± 1.6 | 1243 ± 1.6 | 1196.1 ± 1.5 | 0.5875 ± 0.0043 | 0.5237 ± 0.0039 | 0.4752 ± 0.0036 | 0.4295 ± 0.0034
x1 = 0.7512 | 1335.3 ± 1.6 | 1287.9 ± 1.6 | 1240.8 ± 1.6 | 1194.4 ± 1.5 | 0.5739 ± 0.0042 | 0.512 ± 0.0038 | 0.4643 ± 0.0035 | 0.4207 ± 0.0033
x1 = 0.8119 | 1332.7 ± 1.6 | 1285.5 ± 1.6 | 1238.6 ± 1.6 | 1192.7 ± 1.5 | 0.56 ± 0.0041 | 0.4999 ± 0.0038 | 0.4529 ± 0.0035 | 0.4112 ± 0.0033
x1 = 0.8792 | 1329.3 ± 1.6 | 1282.7 ± 1.6 | 1236.1 ± 1.6 | 1190.7 ± 1.5 | 0.5439 ± 0.004 | 0.4857 ± 0.0037 | 0.4394 ± 0.0034 | 0.3996 ± 0.0032
x1 = 0.9388 | 1326.3 ± 1.6 | 1280.1 ± 1.6 | 1233.8 ± 1.6 | 1188.9 ± 1.5 | 0.5289 ± 0.0039 | 0.4724 ± 0.0036 | 0.4265 ± 0.0034 | 0.3885 ± 0.0032
x1 = 1 | 1323.1 ± 1.6 | 1277.6 ± 1.6 | 1231.5 ± 1.6 | 1187.2 ± 1.5 | 0.5129 ± 0.0039 | 0.458 ± 0.0036 | 0.4125 ± 0.0033 | 0.3762 ± 0.0031
